According to patent US7091351B2, “Vanadium compounds for treating cancer” (Parker Hughes Institute, priority 1998, dated 2006):
Where two headings read alike, the source gives them in different places.

Key:
Type in all cases: cell-based, human
[1] = system: Ntera-2 testicular cancer cells; assay: Flow cytometric TUNEL apoptosis assay, NTERA-2 cells; details: 24 h, TUNEL-positive nuclei
Method: A flow cytometric two-color terminal […] transferase (TdT)-mediated digoxigenin-uridine triphosphate (dUTP) nick-end labeling assay (TUNEL) was employed to detect apoptotic nuclei. Gavrieli, Y., Sherman, Y., Ben-Sasson, S. A. Identification of programmed cell death in situ via specific labeling of nuclear DNA fragmentation. J. Cell Biol., 119: 493–501, 1992. Exponentially growing cells (10^6/ml) were incubated in DMSO alone (0.1%) or treated with 100 μM each of the 16 vanadocenes (VDB, VDC, VMDC, VDI, VDA, VDCN, VDOCN, VDSCN, VDSeCN, VDT, VDCO, VDFe, VD(acac), VDH, VD(dpy), and VD(dtc) in 0.1% DMSO for 24 h. Cells were washed in PBS, fixed in 4% paraformaldehyde in PBS for 15 min on ice. Following two washings in PBS, they were permeabilized with 0.1% Triton X-100 in 0.1% sodium citrate for 2 min on ice, and washed twice in PBS. Labeling of exposed 3′-hydroxyl (3′-OH) ends of fragmented nuclear DNA was performed using TdT and fluorescein isothiocyanate (FITC)-conjugated dUTP according to the manufacturer's recommendations (Boehringer Mannheim, Indianapolis, Ind.). Cells were counterstained with 5 μg/ml PI. Control samples included: (i) untreated cells; (ii) cells incubated with the reaction mixture without the TdT enzyme. Cells were analyzed with a FACS Calibur flow cytometer (Becton Dickinson, Mountain View, Calif.). Relative DNA content (PI) was detected with band-pass filter 585/42, and dUTP incorporation (FITC) was detected with band-pass filter 530/30. Fluorescence was compensated for in the acquisition software using single-label control samples. Data were acquired in listmode, gated to 10,000 events per sample, and analyzed with the use of CELLQuest software program (Becton Dickinson). […] Vanadocene-induced apoptosis is shown by an increase in the number of cells staining with FITC-dUTP. The M1 and M2 gates were used to demarcate non-apoptotic and apoptotic PI-counterstained cell populations, respectively. TUNEL assays were performed using two testicular cell lines Tera-2 and Ntera-2 following exposure to each of the 16 vanadocenes. In other experiments, MC540 binding (as an early marker of apoptosis) and PI permeability (as a marker of advanced stage apoptosis) were simultaneously measured in human cancer cells 24 hours after exposure to vanadocenes, as previously described. Uckun, F. M., Narla, R. K., Jun, X., Zeren, T., Venkatachalam, T., Waddick, K. G., Rostostev, A., Myers, D. E. Cytotoxic activity of EGF-genstein against breast cancer cells. Clin. Cancer Res. 4:901–912, 1998. Vassilev, A., Ozer, Z., Navara, C., Mahajan, S., and Uckun, F. M. Bruton's tyrosine kinase as an inhibitor of the Fas/CD95 death-inducing signaling complex. J. Biol. Chem. 274:1646–56, 1999. Whole cells were analyzed using a FACStar Plus flow cytometer (Becton Dickinson, San Jose, Calif.). All analyses were done using 488 nm excitation from an argon laser. MC540 and PI emissions were split with a 600 nm short pass dichroic mirror and a 575 nm band pass filter was placed in front of one photomultiplier tube to measure MC540 emission and a 635 nm band pass filter was used for PI emission.

NALM-6 leukemia cells = assay: Mitochondrial transmembrane potential, DiIC1 staining, flow cytometry
Method: […] Mitochondrial membrane potential (ΔΨm) was measured using two dyes including a lipophollic cation 5,5′,6,6′-tetrachloro-1,1′,3,3′-tetraethlybenzimidazolylcarbocyanine iodide (JC-1; Molecular probes, Eugene, Oreg.) and a cyanine dye, 1,1′,3,3,3′,3′-hexamethylindodicarbocyanine iodide [DiIC1(5); Molecular probes] as earlier described (22). JC-1 can enter the cells, and selectively mitochondria, and has been used to assess ΔΨm in a variety of studies (23,24). JC-1 is a monomer at 527 nm after being excited at 490 nm; with polarization of ΔΨm, J-aggregates are formed that shift emission to 590 nm (23, 24). This can be detected on a flow cytometer by assessing the green signal (at 527 nm) and green-orange signal (at 590 nm) simultaneously, creating an index of the number of cells polarized and depolarized mitochondria. The treated and control cells were washed and plated in a 6-well plate at 1×10^6 cells in fresh medium. JC-1 was added at a concentration of 10 μg/ml, and cells were incubated for 10 min in the dark at room temp. Cells were then washed twice with ice-cold PBS and immediately analyzed using Becton Dickinson (San Jose, Calif.) Calibur flow cytometer. At least 2×10^3 cells were analyzed to determine the percentage of cells with polarized and depolarized mitochondria. DiIC1(5), a cyanine dye is amphioatheic and cationic that concentrate in energized mitochondria and has been used in a variety of studies to measure the mitochondrial membrane potential (25–27). NALM-6 cells were stained with DiIC1(5) at 40 nM concentration for 30 min in the dark as described for JC-1. The cells were analyzed using Vantage Becton Dickinson cell sorter equipped with HeNe laser with excitation at 635 nm and the fluorescence was collected at 666 nm.

MOLT-3 cells = assay: MTT cytotoxicity assay of oxovanadium(IV) compounds, MOLT-3; details: 48 hr
Method: The cytotoxicity of oxovanadium (W) complexes listed in Table 6 were tested against 9 different human cancer cell lines was performed using the MTT (3-[4,5-dimethylthiazol-2-yl]-2,5-diphenyl tetrazolium bromide) assay (Boehringer Mannheim Corp., Indianapolis, Ind.) as described previously (20). Briefly, exponentially growing tumor cells were seeded into a 96-well plate at a density of 4×10^4cells/well and incubated with medium containing the oxovanadium(IV) compounds concentrations ranging from 0.1 to 250 μM for 48 hours at 37° C. in a humidified 5% CO2 atmosphere. Triplicate wells were used for each treatment. To each well, 10 μl of MTT (0.5 mg/ml final concentration) was added and the plates were incubated at 37° C. for 4 hours to allow MTT to form formazan crystals by reacting with metabolically active cells . The formazan crystals were solubilized overnight at 37° C. in a solution containing 10% SDS in 0.01 M HCl. The absorbence of each well was measured in a microplate reader (Labsystems) at 540 nm and a reference wavelength of 690 nm. To translate the OD540 values into the number of live cells in each well, the OD540 values were compared to those on standard OD540—versus—cell number curves generated for each cell line. The percent survival was calculated using the formula: % survival=Live cell number[test]/Live cell number [control]×100. The IC50 values were calculated by non-linear regression analysis using an Graphpad Prism software version 2.0 (Graphpad Software, Inc., San Diego, Calif.).

## [Cl-].[Cl-].[V+4].c1cc[cH-]c1.c1cc[cH-]c1 [VDC, VCp2Cl2]
[1]
  % Apoptosis at 100 μM NTERA-2: 35 (34, 34) %

## bis(4,7-dimethyl-1,10-phenanthroline)sulfatooxovanadium(IV) [Compound 29]
NALM-6 leukemia cells; 1 μM, 48 hours (vehicle 6.5%)
  fraction of DiIC1-negative cells with depolarized mitochondria: 91.5%
NALM-6 leukemia cells; 24 hr treatment, read-out: average EC50 for depolarization of mitochondria (decreased DiIC1 staining), 24 hr
  EC50: 3600 nM
NALM-6 leukemia cells; 48 hr treatment, read-out: average EC50 for depolarization of mitochondria (decreased DiIC1 staining), 48 hr
  EC50: 300 nM
NALM-6 leukemia cells; 72 hr treatment, read-out: average EC50 for depolarization of mitochondria (decreased DiIC1 staining), 72 hr
  EC50: 80 nM
MOLT-3 cells
  IC50: 190 ± 10 nM
